Experimental data taken from BigSolDB 2.1.

Brc1sc(Br)c(Br)c1Br
solubility (mole fraction)
Settings | in THF | in chloroform | in ethanol | in ethyl acetate | in ethyl formate | in methanol | in n-butanol | in n-propanol | in toluene
278.05 K | 0.0405 | 0.02 | – | 0.00809 | 0.00389 | – | 0.00267 | – | 0.027
281.25 K | 0.0436 | 0.0229 | 0.00149 | 0.00924 | 0.00451 | 0.000395 | 0.00295 | 0.00219 | 0.0314
286.15 K | 0.0469 | 0.0269 | 0.00165 | 0.0109 | 0.00546 | 0.000465 | 0.00369 | 0.00256 | 0.0358
290.15 K | 0.0511 | 0.0302 | 0.0018 | 0.0124 | 0.00632 | 0.000517 | 0.00433 | 0.00287 | 0.04
293.15 K | 0.0538 | 0.0334 | 0.002 | 0.0137 | 0.00705 | 0.000567 | 0.0048 | 0.00319 | 0.044
297.15 K | 0.0572 | 0.039 | 0.00221 | 0.0154 | 0.00809 | 0.000646 | 0.0054 | 0.00364 | 0.0486
302.15 K | 0.0625 | 0.0455 | 0.00267 | 0.0183 | 0.00969 | 0.00076 | 0.00636 | 0.00433 | 0.0554
307.15 K | 0.0685 | 0.0536 | 0.0031 | 0.0216 | 0.0118 | 0.000896 | 0.0077 | 0.00514 | 0.0626
311.65 K | 0.0738 | 0.0629 | 0.00356 | 0.0249 | 0.0138 | 0.00103 | 0.00895 | 0.00584 | 0.0713
315.65 K | 0.0788 | 0.0687 | 0.00404 | 0.0279 | 0.0154 | 0.0012 | 0.0102 | 0.0067 | 0.0756
320.15 K | 0.0843 | 0.0781 | 0.00475 | 0.0326 | 0.0174 | 0.00144 | 0.0118 | 0.00812 | 0.0834
325.15 K | – | – | 0.00566 | – | – | 0.00169 | – | 0.00965 | –
